Assay results: publication PMC6380956 (Biochemistry, 2019)
pKd: −log10 of the molar value. Each block holds one molecule with its values, some of them ahead of it.

Columns and labels:
MjCobT [1] = molecular target: T1, MjCobT (Methanocaldococcus jannaschii, UniProt Q58993); experiment: isothermal titration calorimetry; format: binding
T1 sequence (Q58993 1-350): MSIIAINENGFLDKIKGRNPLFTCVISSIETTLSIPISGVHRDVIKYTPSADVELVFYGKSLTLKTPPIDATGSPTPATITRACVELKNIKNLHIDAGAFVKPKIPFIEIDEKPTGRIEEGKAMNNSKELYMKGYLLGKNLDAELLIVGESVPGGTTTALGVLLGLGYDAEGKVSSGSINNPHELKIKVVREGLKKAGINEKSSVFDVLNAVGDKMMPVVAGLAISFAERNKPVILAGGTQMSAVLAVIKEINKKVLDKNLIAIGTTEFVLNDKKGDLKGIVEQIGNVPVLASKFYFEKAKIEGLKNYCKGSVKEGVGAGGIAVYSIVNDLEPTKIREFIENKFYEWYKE

MjCobT [2] = molecular target: T1, MjCobT; experiment: product formation by purified enzyme from NaMN and [[…]-14C]-DMB, TLC; format: biochemical
[3] = molecular target: Methanocaldococcus jannaschii CobT (NaMN:DMB phosphoribosyltransferase) (Methanocaldococcus jannaschii); experiment: AUC

Molecule: O=C([O-])c1ccc[n+]([C@@H]2O[C@H](COP(=O)(O)O)[C@@H](O)[C@H]2O)c1 [NaMN]
pKd (MjCobT [1]): 5.49

Molecule: Cc1cc2ncn([C@H]3O[C@H](COP(=O)(O)O)[C@@H](O)[C@H]3O)c2cc1C [α-RP]
product formation by purified enzyme from NaMN and [2-14C]-DMB, TLC (MjCobT [2]): the amount of MjCobT-generated α-RP is displayed as a function of time for each concentration of NaMN tested

percent of the c(s) distribution in the dimer species [3]: 81.3%
stoichiometry N [3]: 2
Molecule: Methanocaldococcus jannaschii CobT (NaMN:DMB phosphoribosyltransferase) (enzyme)
